Among the data in paper PMC8162404, “Proteomimetic surface fragments distinguish targets by function” (Chemical Science, 2020) are Kd values, retold here.

The structures appear in SMILES notation. Like-named read-outs stand apart in the source and are kept apart here.

What all share (assay): Pull-down assay with immobilized protein and LSM libraries
In assay [1] the target is T1, Gal-1 (Homo sapiens, UniProt P09382).
T1 construct: made in house; host or cells: E. coli BL21(DE3)
Type of assay: binding. Particulars: 1:1 binding assumed, read-out: Surface mapping KD (apparent). An outline of the steps: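 His-tagged protein immobilized on Co-NTA resin (64 µM) in 20 mM HEPES pH 7.4, 150 mM NaCl, equilibrated 30 min at room temperature with foldamer LSM sublibraries at equimolar total concentration. Unbound fractions quantified by HPLC-MS versus protein-free resin control; apparent KD assumes 1:1 binding.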

The target in assay [2] is T2, S100A4 (Homo sapiens, UniProt P26447).
T2 construct: made in house; host or cells: Escherichia coli BL21(DE3)
The class given is binding. The settings on record: 1:1 binding assumed, read-out: Surface mapping KD (apparent). In outline: (§1)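 Buffers were HEPES pH 7.4 with 150 mM NaCl, plus 1 mM TCEP and 1 mM CaCl2 (50 mM HEPES) for S100A4 and S100B, 1 mM TCEP for Gal-1, and no additive for RecQ-WH. Immobilized protein at 64 µM was equilibrated 30 min with the LSM sublibrary, and unbound probes were measured by LC-MS.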

Assay [3] has as its target T3, S100B (Homo sapiens, UniProt P04271).
T3 construct: made in house; host or cells: Escherichia coli BL21(DE3)
T3 sequence (P04271 1-92): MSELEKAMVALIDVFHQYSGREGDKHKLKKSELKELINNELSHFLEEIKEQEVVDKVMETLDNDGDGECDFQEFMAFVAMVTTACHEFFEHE
The class given is binding. Particulars: 1:1 binding assumed, read-out: Surface mapping KD (apparent). In outline:
as §1

The target of assay [4] is T4, CaM (Bos taurus, UniProt P62157).
T4 construct: made in house; host or cells: E. coli BL21 (DE3)
Type of assay: binding, bovine. Particulars: 1:2 stoichiometry assumed, read-out: Surface mapping KD (apparent). In outline:
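His-tagged protein immobilized on Co-NTA resin, equilibrated 30 min at room temperature with LSM sublibraries (64 members, […]), equimolar protein to total probe. CaM buffer: 20 mM HEPES pH 7.4, 150 mM NaCl, 5 mM CaCl2. Bound fractions from HPLC-MS loss of unbound probe versus protein-free resin control; Kd derived.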

T1 sequence (P09382 whole entry): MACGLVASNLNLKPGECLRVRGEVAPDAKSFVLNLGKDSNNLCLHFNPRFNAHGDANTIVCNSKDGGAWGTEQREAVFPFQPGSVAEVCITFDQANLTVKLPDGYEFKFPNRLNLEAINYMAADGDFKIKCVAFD
T2 sequence (P26447 whole entry): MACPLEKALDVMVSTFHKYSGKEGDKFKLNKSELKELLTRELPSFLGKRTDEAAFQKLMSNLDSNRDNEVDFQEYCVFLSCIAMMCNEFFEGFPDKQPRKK

Consider `CC(C)C[C@@H](CC(=O)N[C@H]1CCC[C@@H]1C(=O)N[C@H]1CCC[C@@H]1C(N)=O)NC(=O)[C@H]1CCC[C@@H]1NC(=O)[C@H]1CCC[C@@H]1NC(=O)C[C@H](Cc1ccc(O)cc1)NC(=O)[C@H]1CCC[C@@H]1NC(=O)[C@H]1CCC[C@@H]1N` [H12 YL], for which the Kd in assay [1] (H12 library) amounted to 402 µM; in assay [2] (H12 library), 180 µM; in assay [3] (H12 library), 81 µM.
With `NC(=O)C[C@@H](CC(=O)N[C@H]1CCCC[C@@H]1C(N)=O)NC(=O)[C@H]1CCCC[C@@H]1NC(=O)[C@H]1CCCC[C@@H]1NC(=O)C[C@H](Cc1ccccc1)NC(=O)[C@H]1CCCC[C@@H]1N` [H14 FN], the Kd in assay [4] (H14 library) worked out at 90 µM; in assay [2] (H14 library), 337 µM.
`CC(C)[C@@H](CC(=O)N[C@H]1CCC[C@@H]1C(=O)N[C@H]1CCC[C@@H]1C(N)=O)NC(=O)[C@H]1CCC[C@@H]1NC(=O)[C@H]1CCC[C@@H]1NC(=O)C[C@H](CCCNC(=N)N)NC(=O)[C@H]1CCC[C@@H]1NC(=O)[C@H]1CCC[C@@H]1N` [H12 RV]: the Kd in assay [1] (H12 library) was 226 µM; in assay [2] (H12 library) it was 422 µM; in assay [3] (H12 library), 133 µM.
As to `C[C@@H](O)[C@@H](CC(=O)N[C@H]1CCC[C@@H]1C(=O)N[C@H]1CCC[C@@H]1C(N)=O)NC(=O)[C@H]1CCC[C@@H]1NC(=O)[C@H]1CCC[C@@H]1NC(=O)C[C@H](Cc1c[nH]c2ccccc12)NC(=O)[C@H]1CCC[C@@H]1NC(=O)[C@H]1CCC[C@@H]1N` [H12 WT], the Kd in assay [4] (H12 library) worked out at 365 µM; in assay [1] (H12 library), 448 µM; in assay [3] (H12 library), 56 µM.
Regarding `NC(=O)[C@H]1CCCC[C@@H]1NC(=O)C[C@H](CCC(=O)O)NC(=O)[C@H]1CCCC[C@@H]1NC(=O)[C@H]1CCCC[C@@H]1NC(=O)C[C@H](Cc1ccc(O)cc1)NC(=O)[C@H]1CCCC[C@@H]1N` [H14 YE], the Kd in assay [2] (H14 library) came to 371 µM.
On to `C[C@@H](CC(=O)N[C@H]1CCCC[C@@H]1C(N)=O)NC(=O)[C@H]1CCCC[C@@H]1NC(=O)[C@H]1CCCC[C@@H]1NC(=O)C[C@H](C)NC(=O)[C@H]1CCCC[C@@H]1N` [H14 AA], for which the Kd in assay [4] (H14 library) was found to be 402 µM; in assay [1] (H14 library) it was 326 µM; in assay [2] (H14 library), 205 µM.
As to `CC[C@H](C)[C@@H](CC(=O)N[C@H]1CCC[C@@H]1C(=O)N[C@H]1CCC[C@@H]1C(N)=O)NC(=O)[C@H]1CCC[C@@H]1NC(=O)[C@H]1CCC[C@@H]1NC(=O)C[C@H](CC(=O)O)NC(=O)[C@H]1CCC[C@@H]1NC(=O)[C@H]1CCC[C@@H]1N` [H12 DI], the values for the Kd in assay [1] (H12 library) and in assay [2] (H12 library) were 249 µM and 449 µM, respectively.
Consider `NC(=O)[C@H]1CCC[C@@H]1NC(=O)[C@H]1CCC[C@@H]1NC(=O)C[C@H](Cc1ccc(O)cc1)NC(=O)[C@H]1CCC[C@@H]1NC(=O)[C@H]1CCC[C@@H]1NC(=O)C[C@H](Cc1ccccc1)NC(=O)[C@H]1CCC[C@@H]1NC(=O)[C@H]1CCC[C@@H]1N` [H12 FY], for which the figures for the Kd in assay [2] (H12 library) and in assay [3] (H12 library) were 192 µM and 59 µM, respectively.
For the molecule `CC[C@H](C)[C@@H](CC(=O)N[C@H]1CCC[C@@H]1C(=O)N[C@H]1CCC[C@@H]1C(N)=O)NC(=O)[C@H]1CCC[C@@H]1NC(=O)[C@H]1CCC[C@@H]1NC(=O)C[C@H](Cc1ccc(O)cc1)NC(=O)[C@H]1CCC[C@@H]1NC(=O)[C@H]1CCC[C@@H]1N` [H12 YI], the Kd in assay [1] (H12 library) worked out at 319 µM; in assay [2] (H12 library), 283 µM; in assay [3] (H12 library), 64 µM.
Take `N=C(N)NCCC[C@@H](CC(=O)N[C@H]1CCC[C@@H]1C(=O)N[C@H]1CCC[C@@H]1C(N)=O)NC(=O)[C@H]1CCC[C@@H]1NC(=O)[C@H]1CCC[C@@H]1NC(=O)C[C@H](CCCCN)NC(=O)[C@H]1CCC[C@@H]1NC(=O)[C@H]1CCC[C@@H]1N` [H12 KR]: the Kd was found to be 330 µM in assay [4] (H12 library), 231 µM in assay [1] (H12 library) and 146 µM in assay [3] (H12 library).
For `CC(C)C[C@@H](CC(=O)N[C@H]1CCCC[C@@H]1C(=O)N[C@H]1CCCC[C@@H]1C(=O)N[C@@H](CCC(=O)O)CC(=O)N[C@H]1CCCC[C@@H]1C(N)=O)NC(=O)[C@H]1CCCC[C@@H]1N` [H14 LE], the results for the Kd in assay [1] (H14 library) and in assay [2] (H14 library) were 463 µM and 427 µM, respectively.
For `NC(=O)C[C@@H](CC(=O)N[C@H]1CCC[C@@H]1C(=O)N[C@H]1CCC[C@@H]1C(=O)N[C@@H](CO)CC(=O)N[C@H]1CCC[C@@H]1C(=O)N[C@H]1CCC[C@@H]1C(N)=O)NC(=O)[C@H]1CCC[C@@H]1NC(=O)[C@H]1CCC[C@@H]1N` [H12 NS], the Kd in assay [4] (H12 library) came out at 99 µM; in assay [2] (H12 library) it was 230 µM.
As for `C[C@@H](CC(=O)N[C@H]1CCCC[C@@H]1C(=O)N[C@H]1CCCC[C@@H]1C(=O)N[C@@H](CCCNC(=N)N)CC(=O)N[C@H]1CCCC[C@@H]1C(N)=O)NC(=O)[C@H]1CCCC[C@@H]1N` [H14 AR], the Kd in assay [4] (H14 library) was found to be 126 µM; in assay [1] (H14 library), 348 µM; in assay [3] (H14 library) it was 126 µM.
As to `CC(C)C[C@@H](CC(=O)N[C@H]1CCC[C@@H]1C(=O)N[C@H]1CCC[C@@H]1C(N)=O)NC(=O)[C@H]1CCC[C@@H]1NC(=O)[C@H]1CCC[C@@H]1NC(=O)C[C@H](CC(=O)O)NC(=O)[C@H]1CCC[C@@H]1NC(=O)[C@H]1CCC[C@@H]1N` [H12 DL], the Kd in assay [1] (H12 library) worked out at 249 µM; in assay [2] (H12 library), 449 µM.
Regarding `N=C(N)NCCC[C@@H](CC(=O)N[C@H]1CCC[C@@H]1C(=O)N[C@H]1CCC[C@@H]1C(N)=O)NC(=O)[C@H]1CCC[C@@H]1NC(=O)[C@H]1CCC[C@@H]1NC(=O)C[C@H](CC(N)=O)NC(=O)[C@H]1CCC[C@@H]1NC(=O)[C@H]1CCC[C@@H]1N` [H12 NR], the Kd in assay [2] (H12 library) came to 245 µM; in assay [3] (H12 library) it was 106 µM.
For `NCCCC[C@@H](CC(=O)N[C@H]1CCCC[C@@H]1C(N)=O)NC(=O)[C@H]1CCCC[C@@H]1NC(=O)[C@H]1CCCC[C@@H]1NC(=O)C[C@H](CO)NC(=O)[C@H]1CCCC[C@@H]1N` [H14 SK], the values for the Kd in assay [4] (H14 library), in assay [1] (H14 library) and in assay [3] (H14 library) were 91 µM, 438 µM and 181 µM, respectively.
Take `N=C(N)NCCC[C@@H](CC(=O)N[C@H]1CCC[C@@H]1C(=O)N[C@H]1CCC[C@@H]1C(=O)N[C@@H](CCCCN)CC(=O)N[C@H]1CCC[C@@H]1C(=O)N[C@H]1CCC[C@@H]1C(N)=O)NC(=O)[C@H]1CCC[C@@H]1NC(=O)[C@H]1CCC[C@@H]1N` [H12 RK]: the Kd in assay [4] (H12 library) came to 330 µM; in assay [1] (H12 library) it was 231 µM; in assay [3] (H12 library), 146 µM.
Taken in the same sequence, the figures for `CC[C@H](C)[C@@H](CC(=O)N[C@H]1CCC[C@@H]1C(=O)N[C@H]1CCC[C@@H]1C(N)=O)NC(=O)[C@H]1CCC[C@@H]1NC(=O)[C@H]1CCC[C@@H]1NC(=O)C[C@H](CCCCN)NC(=O)[C@H]1CCC[C@@H]1NC(=O)[C@H]1CCC[C@@H]1N` [H12 KI] were 314 µM, 250 µM and 71 µM.
Turning to `CC(C)[C@@H](CC(=O)N[C@H]1CCC[C@@H]1C(=O)N[C@H]1CCC[C@@H]1C(=O)N[C@@H](CCC(N)=O)CC(=O)N[C@H]1CCC[C@@H]1C(=O)N[C@H]1CCC[C@@H]1C(N)=O)NC(=O)[C@H]1CCC[C@@H]1NC(=O)[C@H]1CCC[C@@H]1N` [H12 VQ], the Kd was 436 µM in assay [1] (H12 library) and 497 µM in assay [2] (H12 library).
For the molecule `NC(=O)[C@H]1CCC[C@@H]1NC(=O)[C@H]1CCC[C@@H]1NC(=O)C[C@H](Cc1ccc(O)cc1)NC(=O)[C@H]1CCC[C@@H]1NC(=O)[C@H]1CCC[C@@H]1NC(=O)C[C@H](Cc1ccc(O)cc1)NC(=O)[C@H]1CCC[C@@H]1NC(=O)[C@H]1CCC[C@@H]1N` [H12 YY], the Kd came out at 443 µM in assay [4] (H12 library), 243 µM in assay [1] (H12 library) and 128 µM in assay [3] (H12 library).
